Measurements from US9718785B2, “1,3-Disubstituted cyclopentane derivatives” (MERCK PATENT GMBH, priority 2013, dated 2017).

Target: T1, human recombinant full-length fatty acid synthase (FASN) (Homo sapiens, UniProt P49327)
T1 construct: 40 nM human recombinant full-length fatty acid synthase (produced in-house in SF9 cells); made in house; host or cells: SF9 insect cells
Test: Biochemical activity testing of human fatty acid synthase FASN (NADPH fluorescence intensity enzyme assay)
Details: human recombinant FASN, enzyme assay
Outline: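 Recombinant full-length human FASN from SF9 cells, preincubated with compound (10 concentrations, top 30 μM final, 1% DMSO) and NADPH ≥15 min at room temperature, pH 7.0. Acetyl-CoA and malonyl-CoA added; NADPH fluorescence (340/460 nm) read before and after 30 min. IC50 from signal difference, normalised to uninhibited reaction and GSK837149A zero control.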

T1 sequence (P49327 whole entry): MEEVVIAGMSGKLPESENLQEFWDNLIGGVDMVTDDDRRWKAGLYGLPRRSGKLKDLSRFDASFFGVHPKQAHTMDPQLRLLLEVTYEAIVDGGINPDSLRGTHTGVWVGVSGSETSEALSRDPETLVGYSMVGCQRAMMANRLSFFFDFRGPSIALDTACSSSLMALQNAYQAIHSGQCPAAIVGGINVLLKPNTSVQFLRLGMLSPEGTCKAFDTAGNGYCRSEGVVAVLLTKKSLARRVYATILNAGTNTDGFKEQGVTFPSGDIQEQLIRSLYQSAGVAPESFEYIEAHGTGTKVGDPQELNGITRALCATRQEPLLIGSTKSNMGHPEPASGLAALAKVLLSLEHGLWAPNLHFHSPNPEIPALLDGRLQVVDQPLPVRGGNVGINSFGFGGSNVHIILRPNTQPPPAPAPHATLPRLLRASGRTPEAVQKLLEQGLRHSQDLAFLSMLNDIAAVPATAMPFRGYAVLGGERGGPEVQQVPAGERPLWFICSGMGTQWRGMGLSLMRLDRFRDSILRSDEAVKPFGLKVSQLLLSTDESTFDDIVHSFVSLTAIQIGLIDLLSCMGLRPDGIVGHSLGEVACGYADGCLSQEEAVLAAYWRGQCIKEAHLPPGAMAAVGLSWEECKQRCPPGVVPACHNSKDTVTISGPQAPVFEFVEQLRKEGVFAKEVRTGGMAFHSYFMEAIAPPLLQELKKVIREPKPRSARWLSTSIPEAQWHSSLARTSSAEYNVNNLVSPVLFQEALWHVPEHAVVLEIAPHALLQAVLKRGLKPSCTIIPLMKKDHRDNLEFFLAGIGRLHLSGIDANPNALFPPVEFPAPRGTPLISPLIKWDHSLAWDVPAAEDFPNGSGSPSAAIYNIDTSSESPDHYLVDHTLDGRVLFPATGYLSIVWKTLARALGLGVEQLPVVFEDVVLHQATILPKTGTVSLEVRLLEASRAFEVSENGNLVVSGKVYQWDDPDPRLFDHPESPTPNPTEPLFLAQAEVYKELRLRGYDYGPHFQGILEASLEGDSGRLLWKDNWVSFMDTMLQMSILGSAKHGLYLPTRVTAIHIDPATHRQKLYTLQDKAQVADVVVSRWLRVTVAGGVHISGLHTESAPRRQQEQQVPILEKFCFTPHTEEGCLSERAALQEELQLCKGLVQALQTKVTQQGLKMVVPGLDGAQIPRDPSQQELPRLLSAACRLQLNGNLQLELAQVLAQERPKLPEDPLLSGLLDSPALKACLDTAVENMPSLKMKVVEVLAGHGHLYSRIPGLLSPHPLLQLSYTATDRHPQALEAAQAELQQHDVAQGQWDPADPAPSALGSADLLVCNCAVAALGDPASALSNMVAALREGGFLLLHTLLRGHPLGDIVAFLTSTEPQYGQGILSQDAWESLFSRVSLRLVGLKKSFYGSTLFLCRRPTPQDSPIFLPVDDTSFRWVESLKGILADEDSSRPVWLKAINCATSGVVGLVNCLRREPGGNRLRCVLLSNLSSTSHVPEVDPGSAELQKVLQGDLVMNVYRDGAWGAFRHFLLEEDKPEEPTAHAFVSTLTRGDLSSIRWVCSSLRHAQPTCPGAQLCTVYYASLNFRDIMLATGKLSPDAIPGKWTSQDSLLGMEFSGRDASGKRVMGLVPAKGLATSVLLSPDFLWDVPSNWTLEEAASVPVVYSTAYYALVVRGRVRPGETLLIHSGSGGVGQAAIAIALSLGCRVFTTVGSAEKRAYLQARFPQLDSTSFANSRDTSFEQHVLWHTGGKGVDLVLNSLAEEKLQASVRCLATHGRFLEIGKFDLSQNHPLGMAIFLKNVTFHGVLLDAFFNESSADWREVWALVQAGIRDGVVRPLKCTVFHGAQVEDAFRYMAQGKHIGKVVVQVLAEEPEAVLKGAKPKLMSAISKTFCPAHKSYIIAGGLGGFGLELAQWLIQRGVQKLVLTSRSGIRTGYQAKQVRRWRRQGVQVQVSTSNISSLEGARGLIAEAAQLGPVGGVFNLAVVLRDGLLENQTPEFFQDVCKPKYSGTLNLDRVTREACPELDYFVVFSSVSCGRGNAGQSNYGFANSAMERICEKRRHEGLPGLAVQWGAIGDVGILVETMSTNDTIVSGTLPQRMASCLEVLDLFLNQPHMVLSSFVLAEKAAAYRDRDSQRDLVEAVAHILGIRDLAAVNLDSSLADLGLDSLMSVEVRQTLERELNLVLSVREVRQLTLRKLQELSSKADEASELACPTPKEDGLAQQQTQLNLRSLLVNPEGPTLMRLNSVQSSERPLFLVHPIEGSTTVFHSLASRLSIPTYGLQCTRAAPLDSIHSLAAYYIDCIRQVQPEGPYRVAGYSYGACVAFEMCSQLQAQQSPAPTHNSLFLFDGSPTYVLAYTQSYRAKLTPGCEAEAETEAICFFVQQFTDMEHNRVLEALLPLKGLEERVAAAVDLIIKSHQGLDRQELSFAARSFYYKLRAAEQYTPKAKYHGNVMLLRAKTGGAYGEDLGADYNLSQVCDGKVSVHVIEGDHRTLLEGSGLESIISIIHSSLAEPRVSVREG

CCNC(=O)[C@H]1CC[C@@H](n2nncc2-c2ccc(-c3ccc(C#N)cc3F)cc2)C1 [Compound A106, (1S,3R)-3-[5-(4′-Cyano-2′-fluoro-biphenyl-4-yl)-[1,2,3]triazol-1-yl]-cyclopentanecarboxylic acid ethylamide]
IC50: < 0.3 µM

CCC(=O)N[C@H]1CC[C@@H](n2nncc2-c2ccc(-c3ccc4[nH]ccc4c3)nc2)C1 [Compound A107, N-((1S,3R)-3-{5-[6-(1H-Indol-5-yl)-pyridin-3-yl]-[1,2,3]triazol-1-yl}-cyclopentyl)-propionamide]
IC50: < 0.3 µM

CCC(=O)N[C@H]1CC[C@@H](n2nncc2-c2ccc(-c3ccc4[nH]ccc4c3F)nc2)C1 [Compound A108, N-((1S,3R)-3-{5-[6-(4-Fluoro-1H-indol-5-yl)-pyridin-3-yl]-[1,2,3]triazol-1-yl}-cyclopentyl)-propionamide]
IC50: < 0.3 µM

CCC(=O)N[C@H]1CC[C@@H](n2nncc2-c2ccc(-c3ccc4nccn4c3)nc2)C1 [Compound A109, N-{(1S,3R)-3-[5-(6-Imidazo[1,2-a]pyridin-6-yl-pyridin-3-yl)-[1,2,3]triazol-1-yl]-cyclopentyl}-propionamide]
IC50: 0.3 to 3 µM

CCC(=O)N[C@H]1CC[C@@H](n2nncc2-c2ccc(-c3ccc4[nH]ccc4c3F)cc2)C1 [Compound A110, N-((1S,3R)-3-{5-[4-(4-Fluoro-1H-indol-5-yl)-phenyl]-[1,2,3]triazol-1-yl}-cyclopentyl)-propionamide]
IC50: < 0.3 µM

CCC(=O)N[C@H]1CC[C@@H](n2nncc2-c2ccc(-c3ccc4nccn4c3)cc2)C1 [Compound A111, N-{(1S,3R)-3-[5-(4-Imidazo[1,2-a]pyridin-6-yl-phenyl)-[1,2,3]triazol-1-yl]-cyclopentyl}-propionamide]
IC50: < 0.3 µM

CCC(=O)N[C@H]1CC[C@@H](n2nncc2-c2ccc(-c3cc4cc[nH]c4cc3F)cc2)C1 [Compound A112, N-((1S,3R)-3-{5-[4-(6-Fluoro-1H-indol-5-yl)-phenyl]-[1,2,3]triazol-1-yl}-cyclopentyl)-propionamide]
IC50: < 0.3 µM

CCC(=O)N[C@H]1CC[C@@H](n2nncc2-c2ccc(-c3ccc4[nH]ccc4n3)cc2)C1 [Compound A113, N-((1S,3R)-3-{5-[4-(1H-Pyrrolo[3,2-b]pyridin-5-yl)-phenyl]-[1,2,3]triazol-1-yl}-cyclopentyl)-propionamide]
IC50: < 0.3 µM

CCC(=O)N[C@H]1CC[C@@H](n2nncc2-c2ccc(-c3nc4ccc(Cl)cc4o3)cn2)C1 [Compound A114, N-((1S,3R)-3-{5-[5-(6-Chloro-benzoxazol-2-yl)-pyridin-2-yl]-[1,2,3]triazol-1-yl}-cyclopentyl)-propionamide]
IC50: 0.3 to 3 µM

CCC(=O)N[C@H]1CC[C@@H](n2nncc2-c2ccc(-c3nc4ccccc4o3)cn2)C1 [Compound A115, N-{(1S,3R)-3-[5-(5-Benzoxazol-2-yl-pyridin-2-yl)-[1,2,3]triazol-1-yl]-cyclopentyl}-propionamide]
IC50: < 0.3 µM

CCC(=O)N[C@H]1CC[C@@H](n2nncc2-c2ccc(-c3ccc4[nH]ccc4c3F)cn2)C1 [Compound A116, N-((1S,3R)-3-{5-[5-(4-Fluoro-1H-indol-5-yl)-pyridin-2-yl]-[1,2,3]triazol-1-yl}-cyclopentyl)-propionamide]
IC50: < 0.3 µM

CCC(=O)N[C@H]1CC[C@@H](n2nncc2-c2ccc(-c3ccc4[nH]ccc4c3)cn2)C1 [Compound A117, N-((1S,3R)-3-{5-[5-(1H-Indol-5-yl)-pyridin-2-yl]-[1,2,3]triazol-1-yl}-cyclopentyl)-propionamide]
IC50: < 0.3 µM

CCC(=O)N[C@H]1CC[C@@H](n2nncc2-c2ccc(-c3ccc4[nH]ccc4n3)cn2)C1 [Compound A118, N-((1S,3R)-3-{5-[5-(1H-Pyrrolo[3,2-b]pyridin-5-yl)-pyridin-2-yl]-[1,2,3]triazol-1-yl}-cyclopentyl)-propionamide]
IC50: < 0.3 µM
